# Measured values from patent publication US20180003723A1, “METHODS AND SYSTEMS FOR […] DISORDERS” (OASIS DIAGNOSTICS CORPORATION, priority 2014, published 2018).
# Experiments:
# [1] = tested on: patients diagnosed with idiopathic central sleep apnea; assay: Hospital based clinical trial of zolpidem: follow-up polysomnogram and Epworth Sleepiness Scale; assay type: in vivo, human
# Procedure: Idiopathic central sleep apnea was defined by central apnea and hypopnea index (CAHI)≧10 events per hour of sleep, and obstructive apnea/hypopnea index ≦5 events per hour of sleep. An apnea was defined as a cessation or reduction in peak oronasal airflow≧70% of baseline, lasting ≧15 s. Hypopnea was defined as a reduction in peak oronasal airflow ≧50%, ≧70% of baseline for ≧15 s, along with a ≧4% drop in SpO2 relative to pre-event baseline value. The apnea/hypopnea index was calculated for all events relative to total sleep time and documented separately for central and obstructive events. Central apneas and hypopneas comprised the central and obstructive apneas and hypopneas plus mixed apneas and hypopneas comprised the obstructive apnea-hypopnea index (OAHI). Exclusion criteria comprise such as clinical or echocardiographic diagnosis of systolic heart failure, diastolic cardiac dysfunction, or a history of transient ischemic attack or stroke. Those with a typical pattern of Cheyne Stokes respiration during sleep were also excluded. Patients with obstructive sleep apnea with an Apnea-Hypopnea Index of (AHI) ≧5 events per hour prior to continuous positive airway pressure device (CPAP) use, or a history of restless legs syndrome/periodic leg movements were also excluded. […] Patients with hypercapnic lung disease or those with obesity hypoventilation syndrome were also excluded. Subjects were given the Epworth Sleepiness Scale (ESS), and a physical exam followed by an 8-h diagnostic polysomnogram (PSG). […] Outpatient monitoring was conducted every four weeks to assess patients for side effects and for evaluation of daytime sleepiness, using the ESS. […] Nocturnal polysomnographic assessment using the Grass Aurora system was performed in a standard way consisting of an electroencephalogram (EEG), an electrooculogram (EOG), a submental electromyogram (EMG), an anterior tibialis EMG, and an electrocardiogram (ECG) (Rechtschaffen A, Kales A. A manual of standardized terminology, techniques and scoring system for sleep stages in human subjects. Washington D.C.: US Government Printing Office. National Institute of Health Publication; 1968). Nasal-oral airflow was measured using thermocouples. Abdominal and thoracic respiratory movements were recorded with respiratory effort belts using piezoelectric crystal sensors. Transcutaneous oxyhemoglobin saturation (SpO2) was monitored with finger pulse oximetry. A recording of sleep position was performed using video monitoring and snoring was recorded using a snore sensor. An experienced sleep physician, blinded to the study protocol, scored sleep recordings. Sleep architecture was analyzed according to standardized way (Rechtschaffen A, Kales A. A manual of standardized terminology, techniques and scoring system for sleep stages in human subjects. Washington D.C.: US Government Printing Office. National Institute of Health Publication; 1968). Unstimulated saliva samples were collected and biomarker levels measured in the morning prior to beginning and after 150 days of study. Ten minutes prior to collection of unstimulated saliva samples, individuals were asked to rinse orally with water. At the time of sample collection, study members were asked to relax for 5-15 minutes. They were then seated in a bent forward position in an ordinary chair and asked to put their tongues on the lingual surfaces of the upper incisors and allow the saliva to drip into sterile plastic (glass) tubes treated with […] of 2% sodium azide solution to prevent microbial decomposition of saliva. The tubes were held to the lower lip for 10 minutes resulting in a collection of 1-5 ml of saliva per individual.
# [2] = tested on: patients with idiopathic central sleep apnea; assay: Salivary biomarker levels before and after zolpidem treatment (commercial kits, NMR); assay type: in vivo, human; conditions: unstimulated saliva, morning, after 150 days of study, mean
# Procedure: Idiopathic central sleep apnea was defined by central apnea and hypopnea index (CAHI)≧10 events per hour of sleep, and obstructive apnea/hypopnea index ≦5 events per hour of sleep. An apnea was defined as a cessation or reduction in peak oronasal airflow≧70% of baseline, lasting ≧15 s. Hypopnea was defined as a reduction in peak oronasal airflow ≧50%, ≧70% of baseline for ≧15 s, along with a ≧4% drop in SpO2 relative to pre-event baseline value. The apnea/hypopnea index was calculated for all events relative to total sleep time and documented separately for central and obstructive events. Central apneas and hypopneas comprised the central and obstructive apneas and hypopneas plus mixed apneas and hypopneas comprised the obstructive apnea-hypopnea index (OAHI). Exclusion criteria comprise such as clinical or echocardiographic diagnosis of systolic heart failure, diastolic cardiac dysfunction, or a history of transient ischemic attack or stroke. Those with a typical pattern of Cheyne Stokes respiration during sleep were also excluded. Patients with obstructive sleep apnea with an Apnea-Hypopnea Index of (AHI) ≧5 events per hour prior to continuous positive airway pressure device (CPAP) use, or a history of restless legs syndrome/periodic leg movements were also excluded. Patients with prior use of sedative agents such as zolpidem, acetazolamide, theophylline, medroxyprogesterone, or any opiate, were also excluded from the study to exclude comparative bias when evaluating subjective response to zolpidem. Patients with hypercapnic lung disease or those with obesity hypoventilation syndrome were also excluded. Subjects were given the Epworth Sleepiness Scale (ESS), and a physical exam followed by an 8-h diagnostic polysomnogram (PSG). […] Outpatient monitoring was conducted every four weeks to assess patients for side effects and for evaluation of daytime sleepiness, using the ESS. […] Nocturnal polysomnographic assessment using the Grass Aurora system was performed in a standard way consisting of an electroencephalogram (EEG), an electrooculogram (EOG), a submental electromyogram (EMG), an anterior tibialis EMG, and an electrocardiogram (ECG) (Rechtschaffen A, Kales A. A manual of standardized terminology, techniques and scoring system for sleep stages in human subjects. Washington D.C.: US Government Printing Office. National Institute of Health Publication; 1968). Nasal-oral airflow was measured using thermocouples. Abdominal and thoracic respiratory movements were recorded with respiratory effort belts using piezoelectric crystal sensors. Transcutaneous oxyhemoglobin saturation (SpO2) was monitored with finger pulse oximetry. A recording of sleep position was performed using video monitoring and snoring was recorded using a snore sensor. An experienced sleep physician, blinded to the study protocol, scored sleep recordings. Sleep architecture was analyzed according to standardized way (Rechtschaffen A, Kales A. A manual of standardized terminology, techniques and scoring system for sleep stages in human subjects. Washington D.C.: US Government Printing Office. National Institute of Health Publication; 1968). Unstimulated saliva samples were collected and biomarker levels measured in the morning prior to beginning and after 150 days of study. Ten minutes prior to collection of unstimulated saliva samples, individuals were asked to rinse orally with water. At the time of sample collection, study members were asked to relax for 5-15 minutes. They were then seated in a bent forward position in an ordinary chair and asked to put their tongues on the lingual surfaces of the upper incisors and allow the saliva to drip into sterile plastic (glass) tubes treated with […] of 2% sodium azide solution to prevent microbial decomposition of saliva. The tubes were held to the lower lip for 10 minutes resulting in a collection of 1-5 ml of saliva per individual. […]
# [3] = follow-up polysomnogram vs before treatment
smiles,measurement,setting,value
Cc1ccc(-c2nc3ccc(C)cn3c2CC(=O)N(C)C)cc1 [zolpidem],"Excessive daytime sleepiness, measured by the Epworth Sleepiness Scale (ESS), change",[1]; after vs before treatment,decreased
same,"central AHI (CAHI), change on follow-up polysomnogram",[1]; [3],significantly decreased
same,"sleep latency, change",[1]; [3],decreased
same,"stage 1, 3, and 4 sleep percentages, change",[1]; [3],decreased
same,"stage 2 percentages, change",[1]; [3],increased
same,"total number of arousals per hour, change with treatment use",[1]; [3],decreased
same,"Apnea hypopnea, After","[1]; mean, 10 patients, zolpidem 10 mg orally each night, repeat PSG six to ten weeks after initiation, Before 32.6, P 0.0001",12.6
same,"Epworth sleepiness score, After","[1]; mean, zolpidem 10 mg orally each night, Before 13.7, P 0.0001",6.5
same,"% TST stage 3 and 4, After","[1]; mean, zolpidem 10 mg orally each night, repeat PSG six to ten weeks, Before 1.3, P 0.05",0.8%
same,"Total sleep time, After","[1]; mean, zolpidem 10 mg orally each night, repeat PSG six to ten weeks, Before 4.6, P 0.005",6.3 h
same,"% TST REM, After","[1]; mean, zolpidem 10 mg orally each night, repeat PSG six to ten weeks, Before 10.4, P 0.05",14.5%
same,"% TST stage 1, After","[1]; mean, zolpidem 10 mg orally each night, repeat PSG six to ten weeks, Before 34.6, P 0.05",21.3%
same,"Salivary Arginine, After Treatment","[2]; Before Treatment 0.56, P 0.001",0.45 µmol/mL
same,"Salivary Creatine, After Treatment","[2]; Before Treatment 0.64, P 0.001",0.47 µmol/mL
same,"Salivary Tyrosine, After Treatment","[2]; Before Treatment 0.67, P 0.005",0.54 µmol/mL
same,"Salivary CgA, After Treatment","[2]; Before Treatment 13.68, P 0.0001",4.23 pmol/mg protein
same,"Salivary Dihomo-linolenate, After Treatment","[2]; Before Treatment 34.4, P 0.0001",27.1 µmol/mL
same,"Salivary Linolenate, After Treatment","[2]; Before Treatment 36.5, P 0.0001",21.2 µmol/mL
same,"Salivary 3-methyl-2-oxobutyrate, After Treatment","[2]; Before Treatment 61.2, P 0.005",54.1 µmol/mL
same,"Salivary Annexin 1, After Treatment","[2]; Before Treatment 72.1, P 0.0001",56.3 ng/mL
same,"Salivary BDNF, After Treatment","[2]; Before Treatment 345.8, P 0.0001",234.5 pg/mL
same,"Salivary B-endorphin, After Treatment","[2]; Before Treatment 2134.9, P 0.0001",1235.3 pg/mL
